These results are taken from US20240360126A1, “PYRAZOLO[3,4-B]PYRIDINE COMPOUNDS FOR THE TREATMENT OF AUTOIMMUNE DISEASE” (Hoffmann-La Roche Inc., priority 2021, published 2024).

For one series, the target named is T1, human TLR8 (Homo sapiens, UniProt Q9NR97).
T1 construct: host or cells: HEK293 (HEK-Blue hTLR8)
T1 sequence (Q9NR97 27-1041): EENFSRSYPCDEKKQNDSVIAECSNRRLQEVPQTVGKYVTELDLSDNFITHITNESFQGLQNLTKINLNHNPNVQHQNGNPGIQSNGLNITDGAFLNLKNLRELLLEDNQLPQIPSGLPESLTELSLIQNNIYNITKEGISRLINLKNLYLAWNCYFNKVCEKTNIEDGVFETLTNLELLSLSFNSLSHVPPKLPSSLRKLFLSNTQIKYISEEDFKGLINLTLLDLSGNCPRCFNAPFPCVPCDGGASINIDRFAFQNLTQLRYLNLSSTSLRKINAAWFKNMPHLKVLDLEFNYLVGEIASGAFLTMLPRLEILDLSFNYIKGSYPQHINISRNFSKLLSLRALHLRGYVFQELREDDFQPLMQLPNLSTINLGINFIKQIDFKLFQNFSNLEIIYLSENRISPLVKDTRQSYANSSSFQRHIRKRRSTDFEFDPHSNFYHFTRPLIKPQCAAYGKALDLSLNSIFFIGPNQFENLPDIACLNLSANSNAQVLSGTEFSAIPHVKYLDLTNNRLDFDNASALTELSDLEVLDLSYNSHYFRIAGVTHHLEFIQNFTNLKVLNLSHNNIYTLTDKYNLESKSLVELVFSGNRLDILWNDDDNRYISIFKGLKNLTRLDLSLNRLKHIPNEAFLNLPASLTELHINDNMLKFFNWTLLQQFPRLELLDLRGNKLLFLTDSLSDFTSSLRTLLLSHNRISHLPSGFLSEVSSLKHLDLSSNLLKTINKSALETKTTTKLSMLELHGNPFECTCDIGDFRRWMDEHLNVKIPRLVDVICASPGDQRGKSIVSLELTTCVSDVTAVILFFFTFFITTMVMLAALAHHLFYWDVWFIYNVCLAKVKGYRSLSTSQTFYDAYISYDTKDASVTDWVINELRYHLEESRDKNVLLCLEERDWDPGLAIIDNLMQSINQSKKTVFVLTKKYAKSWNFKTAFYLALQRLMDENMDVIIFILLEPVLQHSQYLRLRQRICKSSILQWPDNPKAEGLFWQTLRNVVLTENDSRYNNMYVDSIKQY
The series is described as follows: HEK293-Blue-hTLR-8 cells assay. It is filed as cell-based. Conditions: HEK293-Blue-hTLR8 cells, R848 stimulation, 20 hrs; read-out: HEK/hTLR8 IC50. The text has this: A stable HEK293-Blue-hTLR-8 cell line was purchased from InvivoGen (Cat. #: hkb-htlr8, San Diego, California, USA). These cells were originally designed for studying the stimulation of human TLR8 by monitoring the activation of NF-κB. A SEAP (secreted embryonic alkaline phosphatase) reporter gene was placed under the control of the IFN-β minimal promoter fused to five NF-κB and AP-1-binding sites. The SEAP was induced by activating NF-κB and AP-1 via stimulating HEK-Blue hTLR8 cells with TLR8 ligands. Therefore the reporter expression was declined by TLR8 antagonist under the stimulation of a ligand, such as R848, for incubation of 20 hrs. The cell culture supernatant SEAP reporter activity was determined using QUANTT-BlueTv™ kit (Cat. #: rep-qbl, Invivogen, San Diego, Ca, USA) at a wavelength of 640 nm, a detection medium that turns purple or blue in the presence of alkaline phosphatase.
HEK293-Blue-hTLR8 cells were incubated at a density of 250,000˜450,000 cells/mL in a volume of 170 μL in a 96-well plate in Dulbecco's Modified Eagle's medium (DMEM) containing 4.5 g/L glucose, 50 U/mi penicillin, […] streptomycin, […], 2 mM L-glutamine, 10% (v/v) heat-inactivated fetal bovine serum with addition of 20 μL test compound in a serial dilution in the presence of final DMSO at 1% and 10 μL of 60 μM R848 in above DMEM, perform incubation under 37° C. in a CO2 incubator for 20 hrs. Then 20 μL of the supernatant from each well was incubated with 180 μL Quanti-blue substrate solution at 37° C. for 2 hrs and the absorbance was read at 620-655 nm using a spectrophotometer. The signaling pathway that TLR8 activation leads to downstream NF-κB activation has been widely accepted, and therefore similar reporter assay was modified for evaluating TLR8 antagonist.
Take `Cc1cc(N2CCC(c3cnc(N4CCNCC4)cc3C)[C@H](C)C2)c2cnn(C)c2n1` (single isomer, unassigned) [Example 20, 1,6-dimethyl-4-[cis-3-methyl-4-(4-methyl-6-piperazin-1-yl-3-pyridyl)-1-piperidyl]pyrazolo[3,4-b]pyridine]: the IC50 amounted to 6 nM. For the molecule `Cc1cc(N2CCC(c3cnc(N4CCNCC4)cc3C)[C@H](C)C2)c2cnn(C)c2n1` (single isomer, unassigned) [Example 21, 1,6-dimethyl-4-[trans-3-methyl-4-(4-methyl-6-piperazin-1-yl-3-pyridyl)-1-piperidyl]pyrazolo[3,4-b]pyridine], the IC50 stood at 3 nM.

In the case of `Cc1cc(N2CCC(c3ncc(N4CCNCC4)nc3C)[C@H](C)C2)c2cnn(C)c2n1` (single isomer, unassigned) [Example 22, 1,6-dimethyl-4-[cis-3-methyl-4-(3-methyl-5-piperazin-1-yl-pyrazin-2-yl)-1-piperidyl]pyrazolo[3,4-b]pyridine], the IC50 came to 6 nM. Consider `Cc1cc(N2CCC(c3ncc(N4CCNCC4)nc3C)[C@H](C)C2)c2cnn(C)c2n1` (single isomer, unassigned) [Example 23, 1,6-dimethyl-4-[trans-3-methyl-4-(3-methyl-5-piperazin-1-yl-pyrazin-2-yl)-1-piperidyl]pyrazolo[3,4-b]pyridine], for which the IC50 is 7 nM. On to `Cc1cc(N2CCC(c3ncc(N4CCNCC4)cc3C)[C@H](C)C2)c2cnn(C)c2n1` (single isomer, unassigned) [Example 24, 1,6-dimethyl-4-[cis-3-methyl-4-(3-methyl-5-piperazin-1-yl-2-pyridyl)-1-piperidyl]pyrazolo[3,4-b]pyridine], for which the IC50 was determined as 5 nM. On the same count and under the same terms, with `Cc1cc(N2CCC(c3ncc(N4CCNCC4)cc3C)[C@H](C)C2)c2cnn(C)c2n1` (single isomer, unassigned) [Example 25, 1,6-dimethyl-4-[trans-3-methyl-4-(3-methyl-5-piperazin-1-yl-2-pyridyl)-1-piperidyl]pyrazolo[3,4-b]pyridine] the figure was 7 nM; with `Cc1cc(N2CCC(c3ccc(N4CCNCC4)cc3)CC2)c2cnn(C)c2n1` [Example 1, 1,6-dimethyl-4-[4-(4-piperazin-1-ylphenyl)-1-piperidyl]pyrazolo[3,4-b]pyridine], 12 nM.

With `Cc1cc(N2CCC(c3ccc(N4CCNCC4)cn3)CC2)c2cnn(C)c2n1` [Example 2, 1,6-dimethyl-4-[4-(5-piperazin-1-yl-2-pyridyl)-1-piperidyl]pyrazolo[3,4-b]pyridine], the IC50 amounted to 21 nM. Still for that read-out and setting: with `Cc1cc(N2CCC(c3cnc(N4CCNCC4)cn3)CC2)c2cnn(C)c2n1` [Example 3, 1,6-dimethyl-4-[4-(5-piperazin-1-ylpyrazin-2-yl)-1-piperidyl]pyrazolo[3,4-b]pyridine] the figure was 50 nM. On to `Cc1cc(N2CCC(c3ncc(N4CCNCC4)cn3)CC2)c2cnn(C)c2n1` [Example 4, 1,6-dimethyl-4-[4-(5-piperazin-1-ylpyrimidin-2-yl)-1-piperidyl]pyrazolo[3,4-b]pyridine], for which the IC50 was found to be 59 nM. The same measure, in the same setting: with `Cc1cc(N2CCC(c3cnc(N4CCNCC4)cc3C)CC2)c2cnn(C)c2n1` [Example 8, 1,6-dimethyl-4-[4-(4-methyl-6-piperazin-1-yl-3-pyridyl)-1-piperidyl]pyrazolo[3,4-b]pyridine] the figure was 8 nM; with `Cc1cc(N2CCC(c3cc(C)c(N4CCNCC4)cn3)CC2)c2cnn(C)c2n1` [Example 9, 1,6-dimethyl-4-[4-(4-methyl-5-piperazin-1-yl-2-pyridyl)-1-piperidyl]pyrazolo[3,4-b]pyridine], 31 nM; with `Cc1cc(N2CCC(c3ccc(N4CCNCC4)nc3C)CC2)c2cnn(C)c2n1` [Example 10, 1,6-dimethyl-4-[4-(2-methyl-6-piperazin-1-yl-3-pyridyl)-1-piperidyl]pyrazolo[3,4-b]pyridine], 13 nM. On the same count and under the same terms, with `Cc1cc(N2CCC(c3cnc(N4CCNCC4)nc3C)CC2)c2cnn(C)c2n1` [Example 11, 1,6-dimethyl-4-[4-(4-methyl-2-piperazin-1-yl-pyrimidin-5-yl)-1-piperidyl]pyrazolo[3,4-b]pyridine] the figure was 42 nM; with `Cc1cc(N2CCC(c3ncc(N4CC[C@@H](N)[C@@H](F)C4)cc3C)CC2)c2cnn(C)c2n1` [Example 15, (3S,4R)-1-[6-[1-(1,6-dimethylpyrazolo[3,4-b]pyridin-4-yl)-4-piperidyl]-5-methyl-3-pyridyl]-3-fluoro-piperidin-4-amine], 47 nM. `COC[C@H]1CN(c2cnc(C3CCN(c4cc(C)nc5c4cnn5C)CC3)c(C)c2)CCN1` [Example 16, 4-[4-[5-[(3R)-3-(methoxymethyl)piperazin-1-yl]-3-methyl-2-pyridyl]-1-piperidyl]-1,6-dimethyl-pyrazolo[3,4-b]pyridine]: the IC50 was 32 nM. On to `CO[C@H]1CN(c2cnc(C3CCN(c4cc(C)nc5c4cnn5C)CC3)c(C)c2)CC[C@@H]1N` [Example 17, (3S,4S)-1-[6-[1-(1,6-dimethylpyrazolo[3,4-b]pyridin-4-yl)-4-piperidyl]-5-methyl-3-pyridyl]-3-methoxy-piperidin-4-amine], for which the IC50 worked out at 39 nM.

As to `CO[C@@H]1CN(c2cnc([C@@H]3CCN(c4cc(C)nc5c4cnn5C)C[C@H]3C)c(C)c2)C[C@H]1N` [Example 26, (3R,4R)-1-[6-[(3S,4R)-1-(1,6-dimethylpyrazolo[3,4-b]pyridin-4-yl)-3-methyl-4-piperidyl]-5-methyl-3-pyridyl]-4-methoxy-pyrrolidin-3-amine], the IC50 came out at 14 nM. As for `Cc1cc(N2CC[C@@H](c3ncc(N4CC[C@@H](N)[C@H](F)C4)cc3C)[C@H](C)C2)c2cnn(C)c2n1` [Example 31, (3R,4R)-1-[6-[(3S,4R)-1-(1,6-dimethylpyrazolo[3,4-b]pyridin-4-yl)-3-methyl-4-piperidyl]-5-methyl-3-pyridyl]-3-fluoro-piperidin-4-amine], the IC50 is 9 nM.

Consider `CO[C@@H]1CN(c2ccc([C@H]3CCN(c4cc(C)nc5c4cnn5C)C[C@@H]3C)nc2)C[C@H]1N` [Example 36, (3R,4R)-1-[6-[(3R,4S)-1-(1,6-dimethylpyrazolo[3,4-b]pyridin-4-yl)-3-methyl-4-piperidyl]-3-pyridyl]-4-methoxy-pyrrolidin-3-amine], for which the IC50 was determined as 21 nM.

Tested on in the next series: not listed separately
The series is described as follows: Human microsome stability assay. It is filed as in vitro ADME. Conditions: 1 μM test compound, 0.5 mg/mL liver microsomal protein, 37° C. The procedure: The human microsomal stability assay is used for early assessment of metabolic stability of a test compound in human liver microsomes.
Human liver microsomes (Cat. NO.: 452117, Corning, USA; Cat. NO.:H2610, Xenotech, USA) were preincubated with test compound for 10 minutes at 37° C. in 100 mM potassium phosphate buffer, pH 7.4. The reactions were initiated by adding NADPH regenerating system.
The final incubation mixtures contained 1 μM test compound, 0.5 mg/mL liver microsomal protein, 1 mM MgCl2, 1 mM NADP, 1 unit/mL isocitric dehydrogenase and 6 mM isocitric acid in 100 mM potassium phosphate buffer, pH 7.4. After incubation times of 0, 3, 6, 9, 15 and 30 minutes at 37° C., 300 μL of cold acetonitrile (including internal standard) was added to 100 μL incubation mixture to terminate the reaction. Following precipitation and centrifugation, the amount of compound remaining in the samples were determined by LC-MS/MS. Controls of no NADPH regenerating system at zero and 30 minutes were also prepared and analyzed.
In general terms: Liver microsomes are a subcellular fraction often used to study metabolism.
Take `Cc1cc(N2CCC(c3cnc(N4CCNCC4)cc3C)[C@H](C)C2)c2cnn(C)c2n1` (single isomer, unassigned) [Example 20, 1,6-dimethyl-4-[cis-3-methyl-4-(4-methyl-6-piperazin-1-yl-3-pyridyl)-1-piperidyl]pyrazolo[3,4-b]pyridine]: the “Clearance of Human microsome” value was determined as 9.0 mL/min/kg.

As for `Cc1cc(N2CCC(c3cnc(N4CCNCC4)cc3C)[C@H](C)C2)c2cnn(C)c2n1` (single isomer, unassigned) [Example 21, 1,6-dimethyl-4-[trans-3-methyl-4-(4-methyl-6-piperazin-1-yl-3-pyridyl)-1-piperidyl]pyrazolo[3,4-b]pyridine], the “Clearance of Human microsome” value came out at 7.8 mL/min/kg.

For `Cc1cc(N2CCC(c3ccc(N4CCNCC4)cn3)CC2)c2cnn(C)c2n1` [Example 2, 1,6-dimethyl-4-[4-(5-piperazin-1-yl-2-pyridyl)-1-piperidyl]pyrazolo[3,4-b]pyridine], the “Clearance of Human microsome” value was 8.2 mL/min/kg.

As to `Cc1cc(N2CCC(c3cnc(N4CCNCC4)cn3)CC2)c2cnn(C)c2n1` [Example 3, 1,6-dimethyl-4-[4-(5-piperazin-1-ylpyrazin-2-yl)-1-piperidyl]pyrazolo[3,4-b]pyridine], the “Clearance of Human microsome” value is given as 9.3 mL/min/kg.
